Test: xn = mol fraction of the nth substance listed
Details: 304.21 K, Fluid (supercritical or subcritical phases), Vibrating tube method, x1 = 0.97

O=C=O [carbon dioxide] + CO
Details | mass density [kg/m3]
10625 kPa | 791.47
10650 kPa | 791.91
10675 kPa | 792.32
10700 kPa | 792.79
10725 kPa | 793.26
10750 kPa | 793.67
10775 kPa | 794.08
10800 kPa | 794.49
10825 kPa | 794.91
10850 kPa | 795.38
10875 kPa | 795.84
10900 kPa | 796.21
10925 kPa | 796.66
10950 kPa | 797.06
10975 kPa | 797.53
11000 kPa | 797.93
11025 kPa | 798.32
11050 kPa | 798.73
11075 kPa | 799.17
11100 kPa | 799.63
11125 kPa | 799.99
11150 kPa | 800.45
11175 kPa | 800.8
11200 kPa | 801.23
11225 kPa | 801.64
11250 kPa | 802.05
11275 kPa | 802.5
11300 kPa | 802.86
11325 kPa | 803.31
11350 kPa | 803.73
11375 kPa | 804.09
11400 kPa | 804.56
11425 kPa | 804.93
11450 kPa | 805.27
11475 kPa | 805.69
11500 kPa | 806.12
11525 kPa | 806.52
11550 kPa | 806.91
11575 kPa | 807.3
11600 kPa | 807.66
11625 kPa | 808.01
11650 kPa | 808.41
11675 kPa | 808.81
11700 kPa | 809.25
11725 kPa | 809.62
11750 kPa | 810
11775 kPa | 810.37
11800 kPa | 810.74
11825 kPa | 811.11
11850 kPa | 811.47
11875 kPa | 811.83
11900 kPa | 812.25
11925 kPa | 812.53
11950 kPa | 812.98
11975 kPa | 813.33
12000 kPa | 813.7
12025 kPa | 814.08
12050 kPa | 814.43
12075 kPa | 814.76
12100 kPa | 815.17
12125 kPa | 815.5
12150 kPa | 815.82
12175 kPa | 816.22
12200 kPa | 816.54
12225 kPa | 816.89
12250 kPa | 817.23
12275 kPa | 817.54
12300 kPa | 817.94
12325 kPa | 818.27
12350 kPa | 818.61
12375 kPa | 818.95
12400 kPa | 819.29
12425 kPa | 819.62
12450 kPa | 819.95
12475 kPa | 820.29
12500 kPa | 820.61
12525 kPa | 820.93
12550 kPa | 821.24
12575 kPa | 821.61
12600 kPa | 821.94
12625 kPa | 822.23
12650 kPa | 822.53
12675 kPa | 822.85
12700 kPa | 823.18
12725 kPa | 823.45
12750 kPa | 823.79
12775 kPa | 824.13
12800 kPa | 824.43
12825 kPa | 824.72
12850 kPa | 825.02
12875 kPa | 825.36
12900 kPa | 825.66
12925 kPa | 825.97
12950 kPa | 826.28
12975 kPa | 826.52
13000 kPa | 826.85
13025 kPa | 827.19
13050 kPa | 827.45
13075 kPa | 827.74
13100 kPa | 828.02
13125 kPa | 828.34
13150 kPa | 828.59
13175 kPa | 828.91
13200 kPa | 829.21
13225 kPa | 829.5
13250 kPa | 829.81
13275 kPa | 830.06
13300 kPa | 830.33
13325 kPa | 830.63
13350 kPa | 830.91
13375 kPa | 831.19
13400 kPa | 831.47
13425 kPa | 831.75
13450 kPa | 832.03
13475 kPa | 832.3
13500 kPa | 832.56
13525 kPa | 832.83
13550 kPa | 833.09
13575 kPa | 833.35
13600 kPa | 833.6
13625 kPa | 833.85

From the NIST ThermoML archive (doi:10.1016/j.jct.2016.03.026)
